Reference: patent US12187709B2 (Genentech, Inc., priority 2021, dated 2025)

Key:
c-Cbl = c-Cbl (Homo sapiens (Human), UniProt P22681); assay: C-Cbl LCK Ub TR-FRET assay (C-cbl Lck HTRF); assay type: biochemical
Procedure, shortened: (§1)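 After the ubiquitination reaction, detection mixture was added and plates incubated 20 min at room temperature before reading. IC50 values were calculated with wells lacking LCK as the low control and DMSO as the high control.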

Cbl-b = Cbl-b (Homo sapiens (Human), UniProt Q13191); assay: Cbl-b LCK Ub TR-FRET assay (Cbl-b Lck HTRF); assay type: biochemical; conditions: for IC50: Cbl-b LCK Ub TR-FRET; for fold-selectivity (Cbl-b over C-cbl): ratio C-cbl Lck HTRF IC50 / Cbl-b Lck HTRF IC50
Cbl-b, sequence (Q13191 40-426): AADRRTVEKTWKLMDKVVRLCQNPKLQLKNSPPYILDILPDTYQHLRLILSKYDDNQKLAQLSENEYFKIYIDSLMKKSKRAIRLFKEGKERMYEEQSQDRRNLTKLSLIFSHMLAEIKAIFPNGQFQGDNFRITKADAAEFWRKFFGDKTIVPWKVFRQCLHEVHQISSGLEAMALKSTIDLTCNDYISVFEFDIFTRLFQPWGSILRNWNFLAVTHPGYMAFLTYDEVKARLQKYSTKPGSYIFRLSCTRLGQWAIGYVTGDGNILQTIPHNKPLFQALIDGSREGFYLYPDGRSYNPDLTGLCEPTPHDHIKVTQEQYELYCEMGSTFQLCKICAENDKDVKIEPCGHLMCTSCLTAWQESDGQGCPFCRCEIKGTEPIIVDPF
Procedure, shortened: as §1

[1] = target: Human Cbl-b (residues 40-426) (Homo sapiens (Human), UniProt Q13191); assay: Cbl-b SPR assay; assay type: binding; conditions: for Fold of selectivity: C-cbl SPR Kd vs Cbl-b SPR Kd; for Kd: SPR, 20° C.
Human Cbl-b (residues 40-426), sequence (Q13191 40-426): as above
Procedure: (§2) Affinity of binding to Cbl-b and c-Cbl for compounds described herein was assessed by surface plasmon resonance (SPR) according to the following protocol.
(§3) A surface capture range of 1300-1500 RU of protein was used for both isoforms.
(§4) For SPR measurements, 6 concentrations with 2 fold serial dilution were measured with blanks flanking each series for double referencing. […] SPR sensorgrams were recorded in multi-cycle kinetics format, with a contact time of 60 seconds and a flow rate of 40 μl/min, the dissociation time was varied between 120-1200 seconds aiming for 4-5 half-lives of the measured interaction.
(§5) Kinetic and affinity parameters were extracted from the multicycle kinetics data fitting to a 1:1 binding model using the Biacore™ Incyte evaluation software (Cytiva).
(§6) Chaser assay utilize a single cycle kinetics SPR experiment with a contact time of 120 seconds, a flow rate of 50 μl/min and a dissociation time of 450 seconds. Single cycle kinetics titration utilized an initial blank injection and 5 concentrations with 2 fold serial dilution with a maximum concentration of 500 nM, blanked to a preceding 6 point blank single cycle kinetics injection for double referencing.
(§7) The kd is measured independently by determining the percentage unoccupied compound binding site over time by measuring the binding of a chaser compound measured by SPR.
(§8) Chaser binding was measured by a multicycle kinetics SPR experiment using a contact time of 20 seconds, a flow rate of 30 μl/min, and a dissociation time of 120 seconds. […] The % compound bound at a given time was determined by comparison to a single injection of chaser preceding the single cycle kinetics titration defined below. % Compound Bound=(1−(RUT/RUT0))*100
(§9) The % compound bound is plotted against time in seconds and fit to a single exponential, where the exponent represents the kd of the compound-protein complex. The single cycle kinetics experiment of the compound is then fit with a fixed kd determined using the chaser.

c-Cbl (residues 47-435) = c-Cbl (residues 47-435) (Homo sapiens (Human), UniProt P22681); assay: c-Cbl SPR assay; assay type: binding; conditions: 20° C.
c-Cbl (residues 47-435), sequence (P22681 47-435): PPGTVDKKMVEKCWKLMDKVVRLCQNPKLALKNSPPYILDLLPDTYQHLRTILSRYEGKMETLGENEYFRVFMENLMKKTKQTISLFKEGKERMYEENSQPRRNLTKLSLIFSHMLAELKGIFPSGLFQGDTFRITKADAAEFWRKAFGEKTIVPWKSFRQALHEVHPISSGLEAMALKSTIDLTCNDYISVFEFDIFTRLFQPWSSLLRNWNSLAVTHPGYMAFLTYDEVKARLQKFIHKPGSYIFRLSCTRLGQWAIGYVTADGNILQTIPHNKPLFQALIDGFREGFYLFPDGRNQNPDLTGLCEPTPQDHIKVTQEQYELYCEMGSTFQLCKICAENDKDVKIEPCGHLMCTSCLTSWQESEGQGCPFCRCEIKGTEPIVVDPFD
Procedure: as §2, §3, §4, §5, §6, §7, §8, §9

c-Cbl, sequence (P22681 47-435): as above

Row | IC50 (c-Cbl) [nM] | IC50 (Cbl-b) [nM] | fold-selectivity (Cbl-b over C-cbl) (Cbl-b) | Fold of selectivity [1] [×] | Kd [1] [nM] | Kd (c-Cbl (residues 47-435)) [nM] | SMILES
1 | 4900 | 1900 | (1.6x) | 14 | 770 | 11000 | CO[C@H]1C[C@H]([C@@H](c2cccc(N3Cc4c(cc(CN5CCN(C)C[C@@H]5C(C)C)cc4C(F)(F)F)C3=O)c2)c2nncn2C)C1 (single isomer, unassigned) [Compound 15]
2 | 14.2 | 7.9 | (1.8x) | 5.1 | 3.7 | 19 | CC(C)[C@H]1CN(C)CCN1Cc1cc2c(c(C(F)(F)F)c1)CN(c1cccc([C@]3(c4nncn4C)C[C@H](C#N)C3)c1)C2=O (single isomer, unassigned) [Compound 63]
3 | 70 | 24 | (2.9x) | 5.1 | 16 | 81 | CC(C)[C@H]1CN(C)CCN1Cc1cc2c(c(C(F)(F)F)c1)CN(c1cccc([C@]3(c4nncn4C)C[C@@H](C#N)C3)c1)C2=O (single isomer, unassigned) [Compound 64]
4 | 62.5 | 25 | (2.5x) | 5.0 | 16 | 81 | C[C@H]1CCCN(Cc2cc3c(c(C(F)(F)F)c2)CN(c2cccc(C4(c5nncn5C)CC5(COC5)C4)c2)C3=O)C1 (single isomer, unassigned) [Compound 66]
5 | 16.8 | 14 | (1.2x) | 9.1 | 3.7 | 34 | CC1=C[C@@](c2cc(NC3CCC3)nc(N3Cc4c(cc(CN5CCN(C)C[C@@H]5C(C)C)cc4C(F)(F)F)C3=O)c2)(c2nncn2C)C1 (single isomer, unassigned) [Compound 71]
6 | 35 | 22 | (1.6x) | 3.0 | 1 | 3 | CC(C)[C@H]1CN(C)CCN1Cc1cc2c(c(C(F)(F)F)c1)CN(c1cc([C@]3(c4nncn4C)C[C@H](C)C3)cc(OC3CCCC3)n1)C2=O (single isomer, unassigned) [Compound 73]
7 | 22 | 17 | (1.3x) | 7.7 | 31 | 230 | CC(C)[C@H]1CN(C)CCN1Cc1cc2c(c(C(F)(F)F)c1)CN(c1cc([C@]3(c4nncn4C)C[C@H](C)C3)cc(NC3CCCC3)n1)C2=O (single isomer, unassigned) [Compound 75]
8 | 1800 | 300 | 6.0x | 6.8 | 250 | 1700 | Cn1cnnc1[C@]1(c2cccc(N3Cc4c(cc(CNC5(C)CCC5)cc4C(F)(F)F)C3=O)c2)CCC(F)(F)C1 (single isomer, unassigned) [Compound 107]
9 | 770 | 360 | 2.1 x | 2.1 | 290 | 610 | Cn1cnnc1[C@@H](c1cccc(N2Cc3c(cc(CNC4(C)CCC4)cc3C(F)(F)F)C2=O)c1)C1CC(=O)C1 (single isomer, unassigned) [Compound 114]
10 | 23 | 10 | 2.3x | 5.2 | 1.8 | 8.9 | Cn1cnnc1[C@H](c1cccc(N2Cc3c(cc(CNC4(C)CCC4)cc3C(F)(F)F)C2=O)c1)C1CC(=O)C1 (single isomer, unassigned) [Compound 115]
11 | 13000 | 3600 | 3.6x | 3.0 | 780 | 2300 | CO[C@](c1cccc(N2Cc3c(cc(CNC4(C)CCC4)cc3C(F)(F)F)C2=O)c1)(c1nncn1C)C1CCC1 (single isomer, unassigned) [Compound 119]
12 | 2000 | 410 | 4.1x | 13 | 360 | 4800 | Cn1cnnc1[C@H](c1cccc(N2Cc3c(cc(CNC4(C)CCC4)cc3C(F)(F)F)C2=O)c1)C1CC(F)C1 (single isomer, unassigned) [Compound 127]
13 | 1300 | 240 | 4.9x | 13 | 230 | 3000 | Cn1cnnc1[C@H](c1cccc(N2Cc3c(cc(CNC4(C)CCC4)cc3C(F)(F)F)C2=O)c1)C1CC(F)C1 (single isomer, unassigned) [Compound 128]
14 | 39 | 11 | 3.5x | 13 | 3.6 | 43 | Cn1cnnc1[C@@H](c1cccc(N2Cc3c(cc(CNC4(C)CCC4)cc3C(F)(F)F)C2=O)c1)C1CC(F)C1 (single isomer, unassigned) [Compound 129]
15 | 5.7 | 5.5 | 1.0x | 5.3 | 0.3 | 1.6 | Cn1cnnc1[C@@H](c1cccc(N2Cc3c(cc(CNC4(C)CCC4)cc3C(F)(F)F)C2=O)c1)C1CC(F)C1 (single isomer, unassigned) [Compound 130]
16 | 5600 | 740 | 7.4x | 16 | 280 | 4500 | COC1CC([C@H](c2cccc(N3Cc4c(cc(CNC5(C)CCC5)cc4C(F)(F)F)C3=O)c2)c2nncn2C)C1 (single isomer, unassigned) [Compound 131]
17 | 4800 | 600 | 8.0x | 15 | 360 | 5600 | COC1CC([C@H](c2cccc(N3Cc4c(cc(CNC5(C)CCC5)cc4C(F)(F)F)C3=O)c2)c2nncn2C)C1 (single isomer, unassigned) [Compound 132]
18 | 730 | 150 | 4.9x | 7.7 | 83 | 660 | COC1CC([C@@H](c2cccc(N3Cc4c(cc(CNC5(C)CCC5)cc4C(F)(F)F)C3=O)c2)c2nncn2C)C1 (single isomer, unassigned) [Compound 133]
19 | 17 | 9.8 | 1.8x | 6.6 | 1.9 | 13 | COC1CC([C@@H](c2cccc(N3Cc4c(cc(CNC5(C)CCC5)cc4C(F)(F)F)C3=O)c2)c2nncn2C)C1 (single isomer, unassigned) [Compound 134]
20 | 69 | 37 | 1.9x | 4.9 | 13 | 63 | Cc1cnnn1[C@@H](c1cccc(N2Cc3c(cc(CNC4(C)CCC4)cc3C(F)(F)F)C2=O)c1)C1COC1 (single isomer, unassigned) [Compound 135]
21 | 1300 | 350 | 3.6x | 4.6 | 220 | 1000 | Cn1cnnc1[C@@H](c1cccc(N2Cc3c(cc(CNC4(C)CCC4)cc3C(F)(F)F)C2=O)c1)[C@H]1C[C@H](C#N)C1 (single isomer, unassigned) [Compound 139]
22 | 1500 | 830 | 1.9x | 0.88 | 980 | 850 | Cn1cnnc1[C@@H](c1cccc(N2Cc3c(cc(CNC4(C)CCC4)cc3C(F)(F)F)C2=O)c1)[C@H]1C[C@@H](C#N)C1 (single isomer, unassigned) [Compound 140]
23 | 12 | 7.6 | 1.6x | 5.1 | 1.9 | 9.4 | Cn1cnnc1[C@H](c1cccc(N2Cc3c(cc(CNC4(C)CCC4)cc3C(F)(F)F)C2=O)c1)[C@H]1C[C@@H](C#N)C1 (single isomer, unassigned) [Compound 141]
24 | 350 | 200 | 1.8x | 3.8 | 370 | 1300 | Cn1cnnc1[C@H](c1cccc(N2Cc3c(cc(CNC4(C)CCC4)cc3C(F)(F)F)C2=O)c1)[C@H]1C[C@H](C#N)C1 (single isomer, unassigned) [Compound 142]
